{"source": "patent US20190358181A1", "about": "“METHODS FOR AUTISM SPECTRUM DISORDER PHARMACOTHERAPY” (priority 2017, published 2019)", "system": "610 metabolites from 63 biochemical pathways", "experiment": "Targeted broad-spectrum plasma metabolomic analysis (LC-MS/MS), paired pre-infusion vs post-infusion (2-days and 6-weeks)", "assay_type": "in vivo, human", "settings": "for Linear Ratio / VIP Score / Z Abs / Z Score: plasma", "procedure": "Targeted, broad-spectrum, plasma metabolomic analysis of 610 metabolites from 63 biochemical pathways was performed by high performance liquid chromatography and tandem mass spectrometry (LC-MS/MS) on the samples collected from patients in Example 1. Venous blood was collected between the hours of 8 am and 5 pm, at least 3 hours after the last meal, into lithium-heparin vacutainer tubes (BD #367884). Plasma was separated by centrifugation at 900 g×10 minutes at room temperature within one hour of collection. The resulting fresh lithium-heparin plasma was transferred to labeled 1.2 ml or 2.0 ml externally threaded cryotubes with a minimum headspace air gap for storage at −80° C. for analysis. Samples were analyzed on an AB SCIEX QTRAP 5500 triple quadrupole mass spectrometer equipped with a Turbo V electrospray ionization (ESI) source, Shimadzu LC-20A UHPLC system, and a PAL CTC autosampler. Typically, 90 μl of plasma was thawed on ice and transferred to a 1.7 ml Eppendorf tube. Five (5.0) μl of a cocktail containing 25-35 commercial stable isotope internal standards, and 5.0 μl of 57 stable isotope internal standards that were custom-synthesized in E. coli NCM3722, Caenorhabditis elegans N2, and Komagataella phaffii (ATCC 76273; formerly known as Pichia pastoris) by metabolic labeling with 13C-glucose and 13C-bicarbonate, were added, mixed, and incubated for 10 min at 20° C. to permit small molecules and vitamins in the internal standards to associate with plasma binding proteins. Macromolecules (protein, DNA, RNA, glycans, etc.) were precipitated by extraction with 4 volumes (400 μl) of cold (−20° C.), acetonitrile:methanol (50:50) (LCMS grade, Cat #LC015-2.5 and GC230-4, Burdick & Jackson, Honeywell), vortexed vigorously, and incubated on crushed ice for 10 min, then removed by centrifugation at 16,000 g×10 min at 4° C. The supernatants containing the extracted metabolites and internal standards in the resulting 40:40:20 solvent mix of acetonitrile:methanol:water were transferred to labeled cryotubes and stored at −80° C. for LCMS/MS analysis.\nLC-MS/MS analysis was performed by scheduled multiple reaction monitoring (sMRM) under Analyst v1.6.2 software control in both negative and positive mode with rapid polarity switching (50 ms). Nitrogen was used for curtain gas (set to 30), collision gas (set to high), ion source gas 1 and 2 (set to 35). The source temperature was 500° C. Spray voltage was set to −4500 V in negative mode and 5500 V in positive mode. The values for Q1 and Q3 mass-to-charge ratios (m/z), declustering potential (DP), entrance potential (EP), collision energy (CE), and collision cell exit potential (CXP) were determined and optimized for each MRM for each metabolite. Ten microliters of extract was injected by PAL CTC autosampler via a 10 μl stainless steel loop into a 250 mm×2.0 mm, 4 μm polymer based NH2 HPLC column (Asahipak NH2P-40 2E, Showa Denko America, Inc., NY) held at 25° C. for chromatographic separation. The mobile phase was solvent A: 95% water with 20 mM (NH4)2CO3 (Sigma, Fluka Cat #74415-250G-F), 5% acetonitrile, and 38 mM NH4OH (Sigma, Fluka Cat #17837-100ML), final pH 9.75; solvent B: 100% acetonitrile. Separation was achieved using the following gradient: 0-3.5 min: 95% B, 3.6-8 min: 85% B, 8.1-13 min: 75% B, 13.5-35 min: 0% B, 36-46 min: 95% B, 46.1 min: end. The flow rate was 200 μl/min. Pump pressures ranged from 920-2600 psi over the course of the gradient. All the samples were kept at 4° C. during analysis. The chromatographic peaks were identified using MultiQuant (v3.0, Sciex), confirmed by manual inspection, and the peak areas integrated. […]", "key": {"[1]": {"settings": "Nitric Oxide, Superoxide, Peroxide Metabolism, 6-weeks"}, "[2]": {"settings": "Nitric Oxide, Superoxide, Peroxide, 2-days"}, "[3]": {"settings": "Phospholipid Metabolism, 2-days"}, "[4]": {"settings": "Phospholipid Metabolism, 6-weeks"}}, "data": [{"smiles": "Cc1ccc(C(=O)Nc2ccc(S(=O)(=O)O)c3cc(S(=O)(=O)O)cc(S(=O)(=O)O)c23)cc1NC(=O)c1cccc(NC(=O)Nc2cccc(C(=O)Nc3cc(C(=O)Nc4ccc(S(=O)(=O)O)c5cc(S(=O)(=O)O)cc(S(=O)(=O)O)c45)ccc3C)c2)c1", "note": "[Suramin, suramin]", "values": [{"measurement": "Fold Enrichment (Obs/Exp)", "setting": "Krebs Cycle, 2-days", "value": 1.6}, {"measurement": "Fraction of Impact (VIP Score) Explained (% of 119.7)", "setting": "Krebs Cycle, 2-days", "value": 3, "unit": "%"}, {"measurement": "Impact (Sum VIP Score)", "setting": "Krebs Cycle, 2-days", "value": 3.3}, {"measurement": "Increased", "setting": "Krebs Cycle, 2-days", "value": 2}, {"measurement": "Observed Hits in the Top 61 Metabolites", "setting": "Krebs Cycle, 2-days", "value": 2}, {"measurement": "Decreased", "setting": "Krebs Cycle, 6-weeks", "value": 0}, {"measurement": "Fold Enrichment (Obs/Exp)", "setting": "Krebs Cycle, 6-weeks", "value": 2.0}, {"measurement": "Fraction of Impact (VIP Score) Explained (% of 94.6)", "setting": "Krebs Cycle, 6-weeks", "value": 5, "unit": "%"}, {"measurement": "Impact (Sum VIP Score)", "setting": "Krebs Cycle, 6-weeks", "value": 4.3}, {"measurement": "Increased", "setting": "Krebs Cycle, 6-weeks", "value": 2}, {"measurement": "Observed Hits in the Top 48 Metabolites", "setting": "Krebs Cycle, 6-weeks", "value": 2}, {"measurement": "Linear Ratio", "setting": "L-Asparagine, 6-weeks", "value": 1.360}, {"measurement": "VIP Score", "setting": "L-Asparagine, 6-weeks", "value": 1.824}, {"measurement": "Z Abs", "setting": "L-Asparagine, 6-weeks", "value": 1.581}, {"measurement": "Z Score", "setting": "L-Asparagine, 6-weeks", "value": 1.581}, {"measurement": "Linear Ratio", "setting": "L-Cystine, 6-weeks", "value": 1.190}, {"measurement": "VIP Score", "setting": "L-Cystine, 6-weeks", "value": 1.774}, {"measurement": "Z Abs", "setting": "L-Cystine, 6-weeks", "value": 1.060}, {"measurement": "Z Score", "setting": "L-Cystine, 6-weeks", "value": 1.060}, {"measurement": "Linear Ratio", "setting": "L-Kynurenine, 6-weeks", "value": 1.303}, {"measurement": "VIP Score", "setting": "L-Kynurenine, 6-weeks", "value": 2.096}, {"measurement": "Z Abs", "setting": "L-Kynurenine, 6-weeks", "value": 1.751}, {"measurement": "Z Score", "setting": "L-Kynurenine, 6-weeks", "value": 1.751}, {"measurement": "Linear Ratio", "setting": "L-Phenylalanine, 6-weeks", "value": 1.245}, {"measurement": "VIP Score", "setting": "L-Phenylalanine, 6-weeks", "value": 1.875}, {"measurement": "Z Abs", "setting": "L-Phenylalanine, 6-weeks", "value": 1.381}, {"measurement": "Z Score", "setting": "L-Phenylalanine, 6-weeks", "value": 1.381}, {"measurement": "Linear Ratio", "setting": "L-Proline, 6-weeks", "value": 1.196}, {"measurement": "VIP Score", "setting": "L-Proline, 6-weeks", "value": 1.546}, {"measurement": "Z Abs", "setting": "L-Proline, 6-weeks", "value": 0.749}, {"measurement": "Z Score", "setting": "L-Proline, 6-weeks", "value": 0.749}, {"measurement": "Linear Ratio", "setting": "L-Serine, 6-weeks", "value": 1.152}, {"measurement": "VIP Score", "setting": "L-Serine, 6-weeks", "value": 1.505}, {"measurement": "Z Abs", "setting": "L-Serine, 6-weeks", "value": 0.954}, {"measurement": "Z Score", "setting": "L-Serine, 6-weeks", "value": 0.954}, {"measurement": "Linear Ratio", "setting": "Lathosterol, 6-weeks", "value": 1.284}, {"measurement": "VIP Score", "setting": "Lathosterol, 6-weeks", "value": 1.844}, {"measurement": "Z Abs", "setting": "Lathosterol, 6-weeks", "value": 1.079}, {"measurement": "Z Score", "setting": "Lathosterol, 6-weeks", "value": 1.079}, {"measurement": "Linear Ratio", "setting": "Methionine sulfoxide, 6-weeks", "value": 1.409}, {"measurement": "VIP Score", "setting": "Methionine sulfoxide, 6-weeks", "value": 2.104}, {"measurement": "Z Abs", "setting": "Methionine sulfoxide, 6-weeks", "value": 2.083}, {"measurement": "Z Score", "setting": "Methionine sulfoxide, 6-weeks", "value": 2.083}, {"measurement": "Linear Ratio", "setting": "Mevalonic acid, 6-weeks", "value": 1.386}, {"measurement": "VIP Score", "setting": "Mevalonic acid, 6-weeks", "value": 1.673}, {"measurement": "Z Abs", "setting": "Mevalonic acid, 6-weeks", "value": 1.036}, {"measurement": "Z Score", "setting": "Mevalonic acid, 6-weeks", "value": 1.036}, {"measurement": "Decreased", "setting": "Microbiome Metabolism, 2-days", "value": 0}, {"measurement": "Fold Enrichment (Obs/Exp)", "setting": "Microbiome Metabolism, 2-days", "value": 1.6}, {"measurement": "Fraction of Impact (VIP Score) Explained (% of 119.7)", "setting": "Microbiome Metabolism, 2-days", "value": 8, "unit": "%"}, {"measurement": "Impact (Sum VIP Score)", "setting": "Microbiome Metabolism, 2-days", "value": 9.3}, {"measurement": "Increased", "setting": "Microbiome Metabolism, 2-days", "value": 4}, {"measurement": "Observed Hits in the Top 61 Metabolites", "setting": "Microbiome Metabolism, 2-days", "value": 4}, {"measurement": "Decreased", "setting": "Microbiome Metabolism, 6-weeks", "value": 0}, {"measurement": "Fold Enrichment (Obs/Exp)", "setting": "Microbiome Metabolism, 6-weeks", "value": 2.0}, {"measurement": "Fraction of Impact (VIP Score) Explained (% of 94.6)", "setting": "Microbiome Metabolism, 6-weeks", "value": 9, "unit": "%"}, {"measurement": "Impact (Sum VIP Score)", "setting": "Microbiome Metabolism, 6-weeks", "value": 8.4}, {"measurement": "Increased", "setting": "Microbiome Metabolism, 6-weeks", "value": 4}, {"measurement": "Observed Hits in the Top 48 Metabolites", "setting": "Microbiome Metabolism, 6-weeks", "value": 4}, {"measurement": "Decreased", "setting": "[1]", "value": 0}, {"measurement": "Fold Enrichment (Obs/Exp)", "setting": "[1]", "value": 4.5}, {"measurement": "Fraction of Impact (VIP Score) Explained (% of 94.6)", "setting": "[1]", "value": 2, "unit": "%"}, {"measurement": "Impact (Sum VIP Score)", "setting": "[1]", "value": 2.2}, {"measurement": "Increased", "setting": "[1]", "value": 1}, {"measurement": "Observed Hits in the Top 48 Metabolites", "setting": "[1]", "value": 1}, {"measurement": "Decreased", "setting": "[2]", "value": 1}, {"measurement": "Fold Enrichment (Obs/Exp)", "setting": "[2]", "value": 3.5}, {"measurement": "Fraction of Impact (VIP Score) Explained (% of 119.7)", "setting": "[2]", "value": 2, "unit": "%"}, {"measurement": "Impact (Sum VIP Score)", "setting": "[2]", "value": 1.9}, {"measurement": "Increased", "setting": "[2]", "value": 0}, {"measurement": "Observed Hits in the Top 61 Metabolites", "setting": "[2]", "value": 1}, {"measurement": "Linear Ratio", "setting": "Octanoylcarnitine, 6-weeks", "value": 0.703}, {"measurement": "VIP Score", "setting": "Octanoylcarnitine, 6-weeks", "value": 1.780}, {"measurement": "Z Abs", "setting": "Octanoylcarnitine, 6-weeks", "value": 1.451}, {"measurement": "Z Score", "setting": "Octanoylcarnitine, 6-weeks", "value": "−1.451"}, {"measurement": "Linear Ratio", "setting": "PE (18:0/18:0), 6-weeks", "value": 0.644}, {"measurement": "VIP Score", "setting": "PE (18:0/18:0), 6-weeks", "value": 1.555}, {"measurement": "Z Abs", "setting": "PE (18:0/18:0), 6-weeks", "value": 1.331}, {"measurement": "Z Score", "setting": "PE (18:0/18:0), 6-weeks", "value": "−1.331"}, {"measurement": "Decreased", "setting": "[3]", "value": 3}, {"measurement": "Fold Enrichment (Obs/Exp)", "setting": "[3]", "value": 0.3}, {"measurement": "Fraction of Impact (VIP Score) Explained (% of 119.7)", "setting": "[3]", "value": 5, "unit": "%"}, {"measurement": "Impact (Sum VIP Score)", "setting": "[3]", "value": 5.7}, {"measurement": "Increased", "setting": "[3]", "value": 0}, {"measurement": "Observed Hits in the Top 61 Metabolites", "setting": "[3]", "value": 3}, {"measurement": "Decreased", "setting": "[4]", "value": 1}, {"measurement": "Fold Enrichment (Obs/Exp)", "setting": "[4]", "value": 0.1}, {"measurement": "Fraction of Impact (VIP Score) Explained (% of 94.6)", "setting": "[4]", "value": 2, "unit": "%"}, {"measurement": "Impact (Sum VIP Score)", "setting": "[4]", "value": 1.6}, {"measurement": "Increased", "setting": "[4]", "value": 0}, {"measurement": "Observed Hits in the Top 48 Metabolites", "setting": "[4]", "value": 1}, {"measurement": "Decreased", "setting": "Purine Metabolism, 2-days", "value": 5}, {"measurement": "Fold Enrichment (Obs/Exp)", "setting": "Purine Metabolism, 2-days", "value": 2.4}]}]}
